Measurements as given in patent publication US20240158446A1, “CYCLIC COMPOUND HAVING SELECTIVE INHIBITORY ACTION ON KRAS OVER HRAS AND NRAS” (CHUGAI SEIYAKU KABUSHIKI KAISHA, priority 2021, published 2024).
*1 amine or outer side, *2 acyl side, *3 side chain or, on linkers, in order; H or OH if unused. Where a SMILES comes first, the peptide text is derived from it. Bridges are numbered along the chain shown (N, C = ends). [ ]: non-standard residue; d: D form. The star is where a group is joined. hPhe(3,5-F2-4-CF3) = N[C@@H](CCc1cc(F)c(C(F)(F)F)c(F)c1)C(=O)O; hPhe(3-Cl-4-CF3) = N[C@@H](CCc1ccc(C(F)(F)F)c(Cl)c1)C(=O)O; NPrPhe(4-CF3) = CCCN[C@@H](Cc1ccc(C(F)(F)F)cc1)C(=O)O; NEtPhe(4-CF3) = CCN[C@@H](Cc1ccc(C(F)(F)F)cc1)C(=O)O; NMeGly(cPent) = CN[C@H](C(=O)O)C1CCCC1; Pro(4,4-Me2) = CC1(C)CN[C@H](C(=O)O)C1; Pro(4S-Me) = C[C@@H]1CN[C@H](C(=O)O)C1; X11 = CCC[C@](C)(N[*:1])C(=O)[*:2]; NMeD = CN[C@@H](CC(=O)O)C(=O)O; NMeL = CN[C@@H](CC(C)C)C(=O)O; αMeS = C[C@](N)(CO)C(=O)O; Morpholide = C1CN(*)CCO1; Ac5c = NC1(C(=O)O)CCCC1; Aze = O=C(O)[C@@H]1CCN1; Ac3c = NC1(C(=O)O)CC1; Sar = CNCC(=O)O; Allyl = C=CC*

Columns and labels:
[1] = target: GDP-bound NRAS wild-type protein (Homo sapiens, UniProt P01111); assay: Binding to NRAS by surface plasmon resonance (SPR), Single Cycle Kinetics
[2] = target: GDP-bound HRAS wild-type protein (Homo sapiens, UniProt P01112); assay: Binding to HRAS by surface plasmon resonance (SPR), Single Cycle Kinetics
[3] = system: human lung cancer strain NCI-H441;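 also: cell proliferation inhibition after four days measured by CellTiter-Glo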
[4] = SPR, GDP-bound NRAS wild-type protein vs GDP-bound KRAS wild-type protein
[5] = SPR, GDP-bound HRAS wild-type protein vs GDP-bound KRAS wild-type protein

GDP-bound HRAS wild-type protein, sequence (P01112 whole entry): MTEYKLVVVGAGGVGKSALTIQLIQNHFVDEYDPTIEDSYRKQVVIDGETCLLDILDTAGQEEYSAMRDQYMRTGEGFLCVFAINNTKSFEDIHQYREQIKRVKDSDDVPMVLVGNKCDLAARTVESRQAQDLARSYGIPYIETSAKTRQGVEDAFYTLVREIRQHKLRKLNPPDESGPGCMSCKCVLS
GDP-bound NRAS wild-type protein, sequence (P01111 whole entry): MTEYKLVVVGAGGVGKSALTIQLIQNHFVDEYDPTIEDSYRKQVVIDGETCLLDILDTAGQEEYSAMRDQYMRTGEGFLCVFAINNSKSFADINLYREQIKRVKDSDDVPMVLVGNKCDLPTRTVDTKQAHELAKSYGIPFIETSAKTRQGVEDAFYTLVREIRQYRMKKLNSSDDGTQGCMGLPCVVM

Row | SMILES | NRAS/KRAS (ratio of KD value with respect to NRAS to KD value with respect to KRAS) [1, 4] | HRAS/KRAS (ratio of KD value with respect to HRAS to KD value with respect to KRAS) [2, 5] | IC50 [3] [nM] | NRAS/KRAS (ratio of KD value with respect to GDP-bound NRAS wild-type protein to KD value with respect to KRAS) ([1]; SPR KD ratio NRAS/KRAS, class symbols) | HRAS/KRAS (ratio of KD value with respect to GDP-bound HRAS wild-type protein to KD value with respect to KRAS) ([2]; SPR KD ratio HRAS/KRAS, class symbols) | NRAS/KRAS (ratio of KD value for NRAS to KD value for KRAS) [1, 4] | HRAS/KRAS (ratio of KD value for HRAS to KD value for KRAS) [2, 5]
1 | CCCN1C(=O)CN(C)C(=O)[C@@H]2CCN2C(=O)[C@H]([C@@H](C)CC)NC(=O)[C@H](CC(C)C)N(C)C(=O)C[C@@H](C(=O)N2CCOCC2)N(C)C(=O)[C@H](C2CCCC2)N(C)C(=O)C2(CCCC2)NC(=O)[C@@H]2CC(C)(C)CN2C(=O)[C@H](CCc2ccc(C(F)(F)F)c(Cl)c2)NC(=O)CN(C)C(=O)[C@@H]1Cc1ccc(C(F)(F)F)cc1 [PP0452] ([NMeL]I[Aze][Sar][NPrPhe(4-CF3)][Sar][hPhe(3-Cl-4-CF3)][Pro(4,4-Me2)][Ac5c][NMeGly(cPent)][NMeD]-Morpholide; lactam N-11) | B (a compound having 3 or more and less than 10 is denoted as B) | B (a compound having 3 or more and less than 10 is denoted as B) | 34.1 | – | – | – | –
2 | CCC(CC)[C@H]1C(=O)N(C)[C@H](C(=O)N(C)C)CC(=O)N(C)[C@@H](COC)C(=O)N[C@@H]([C@@H](C)CC)C(=O)N(C)CC(=O)N(C)[C@H]2C/C=C\CCN(C2=O)[C@@H](Cc2ccc(C)cc2)C(=O)N(C)CC(=O)N[C@@H](CCc2ccc(Cl)c(Cl)c2)C(=O)N2C[C@H](OC3CCC3)C[C@H]2C(=O)N(C)C2(CC(C)(C)C2)C(=O)N1C [PP2816] | – | – | 22.8 | AA (a compound having 20 or more is denoted as AA) | A (a compound having 10 or more and less than 20 is denoted as A) | – | –
3 | CCCN1C(=O)CN(C)C(=O)[C@@H]2CCN2C(=O)[C@H]([C@@H](C)CC)NC(=O)[C@H](CC(C)C)N(C)C(=O)C[C@@H](C(=O)N2CCOCC2)N(C)C(=O)[C@H](C2CCCC2)N(C)C(=O)[C@](C)(CCC)NC(=O)[C@@H]2CCCN2C(=O)[C@H](CCc2cc(F)c(C(F)(F)F)c(F)c2)NC(=O)CN(C)C(=O)[C@@H]1Cc1ccc(C(F)(F)F)cc1 [PP0775] ([NMeL]I[Aze][Sar][NPrPhe(4-CF3)][Sar][hPhe(3,5-F2-4-CF3)]P[X11][NMeGly(cPent)][NMeD]-Morpholide; lactam N-11) | B (a compound having 3 or more and less than 10 is denoted as B) | B (a compound having 3 or more and less than 10 is denoted as B) | 417 | – | – | – | –
4 | CCCN1C(=O)CN(C)C(=O)[C@@H]2CCN2C(=O)[C@H]([C@@H](C)CC)NC(=O)[C@H](CC(C)C)N(C)C(=O)C[C@@H](C(=O)N2CCOCC2)N(C)C(=O)[C@H](C2CCCC2)N(C)C(=O)C2(CCCC2)NC(=O)[C@@H]2C[C@H](C)CN2C(=O)[C@H](CCc2ccc(C(F)(F)F)c(Cl)c2)NC(=O)CN(C)C(=O)[C@@H]1Cc1ccc(C(F)(F)F)cc1 [PP0453] ([NMeL]I[Aze][Sar][NPrPhe(4-CF3)][Sar][hPhe(3-Cl-4-CF3)][Pro(4S-Me)][Ac5c][NMeGly(cPent)][NMeD]-Morpholide; lactam N-11) | B (a compound having 3 or more and less than 10 is denoted as B) | C (A compound having a KD ratio of 0.1 or more and less than 3 is denoted as C) | 20.3 | – | – | – | –
5 | C=CCOC[C@]1(C)NC(=O)[C@@H]2CCCN2C(=O)[C@H](CCc2cc(F)c(C(F)(F)F)c(F)c2)NC(=O)CN(C)C(=O)[C@H](Cc2ccc(C(F)(F)F)cc2)N(CCC)C(=O)CN(C)C(=O)[C@@H]2CCN2C(=O)[C@H]([C@@H](C)CC)NC(=O)[C@H](CC(C)C)N(C)C(=O)C[C@@H](C(=O)N2CCOCC2)N(C)C(=O)[C@H](C2CCCC2)N(C)C1=O [PP0780] ([NMeL]I[Aze][Sar][NPrPhe(4-CF3)][Sar][hPhe(3,5-F2-4-CF3)]P[αMeS](Allyl)[NMeGly(cPent)][NMeD]-Morpholide; lactam N-11) | B (a compound having 3 or more and less than 10 is denoted as B) | B (a compound having 3 or more and less than 10 is denoted as B) | 527 | – | – | – | –
6 | CC[C@H](C)[C@@H]1NC(=O)[C@H](CC(C)C)N(C)C(=O)C[C@@H](C(=O)N2CCOCC2)N(C)C(=O)[C@H](C2CCCC2)N(C)C(=O)C2(CC2)NC(=O)[C@@H]2CCCN2C(=O)[C@H](CCc2ccc(C(F)(F)F)c(Cl)c2)NC(=O)CN(C)C(=O)[C@H](Cc2ccc(C(F)(F)F)cc2)N(CC)C(=O)CN(C)C(=O)CN(C)C1=O [PP0234] ([NMeL]I[Sar][Sar][NEtPhe(4-CF3)][Sar][hPhe(3-Cl-4-CF3)]P[Ac3c][NMeGly(cPent)][NMeD]-Morpholide; lactam N-11) | – | – | 49.9 | – | – | B (a compound having 3 or more and less than 10 is denoted as B) | C (A compound having a KD ratio of 0.1 or more and less than 3 is denoted as C)
